According to patent publication US10660877B2 (BRISTOL-MYERS SQUIBB COMPANY, priority 2016, dated 2020):
pIC50: −log10 of the molar value.

What was measured:
human TLR9 = human TLR9 (Homo sapiens (Human), UniProt Q9NR96); assay: TLR9 inhibition reporter assay (HEK-Blue cells, SEAP reporter, ODN2006 stimulation); details: read-out: TLR9 IC50, HEK-Blue cells overexpressing human TLR9, ODN2006 5 nM;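 note: compounds tested over 0.05 nM to 50 µM, 22 h incubation, inhibition taken as SEAP signal drop from agonist plus DMSO wells toward a known inhibitor control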
Description: TLR7/8/9 Inhibition Reporter Assays
Briefly, cells are seeded into Greiner 384 well plates (15000 cells per well for TLR7, 20,000 for TLR8 and 25,000 for TLR9) and then treated with test compounds in DMSO to yield a final dose response concentration range of 0.05 nM-50 μM. […] After a 22 hour incubation at 37° C., 5% CO2, SEAP levels are determined with the addition of HEK-Blue™ Detection reagent (Invivogen), a cell culture medium that allows for detection of SEAP, according to manufacturer's specifications. The percent inhibition is determined as the % reduction in the HEK-Blue signal present in wells treated with agonist plus DMSO alone compared to wells treated with a known inhibitor.

human TLR7 = human TLR7 (Homo sapiens (Human), UniProt Q9NYK1); assay: TLR7 inhibition reporter assay (HEK-Blue cells, SEAP reporter, gardiquimod stimulation); format: cell-based; details: HEK-Blue cells overexpressing human TLR7, gardiquimod 7.5 μM
human TLR8 = human TLR8 (Homo sapiens (Human), UniProt Q9NR97); assay: TLR8 inhibition reporter assay (HEK-Blue cells, SEAP reporter, R848 stimulation); details: read-out: TLR8 IC50, HEK-Blue cells overexpressing human TLR8, R848 15.9 μM;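 note: compounds tested from 0.05 nM to 50 µM, 22 h at 37 °C, SEAP measured with HEK-Blue Detection, inhibition relative to agonist plus DMSO versus a known inhibitor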
Sequence of human TLR8 (Q9NR97 27-1041): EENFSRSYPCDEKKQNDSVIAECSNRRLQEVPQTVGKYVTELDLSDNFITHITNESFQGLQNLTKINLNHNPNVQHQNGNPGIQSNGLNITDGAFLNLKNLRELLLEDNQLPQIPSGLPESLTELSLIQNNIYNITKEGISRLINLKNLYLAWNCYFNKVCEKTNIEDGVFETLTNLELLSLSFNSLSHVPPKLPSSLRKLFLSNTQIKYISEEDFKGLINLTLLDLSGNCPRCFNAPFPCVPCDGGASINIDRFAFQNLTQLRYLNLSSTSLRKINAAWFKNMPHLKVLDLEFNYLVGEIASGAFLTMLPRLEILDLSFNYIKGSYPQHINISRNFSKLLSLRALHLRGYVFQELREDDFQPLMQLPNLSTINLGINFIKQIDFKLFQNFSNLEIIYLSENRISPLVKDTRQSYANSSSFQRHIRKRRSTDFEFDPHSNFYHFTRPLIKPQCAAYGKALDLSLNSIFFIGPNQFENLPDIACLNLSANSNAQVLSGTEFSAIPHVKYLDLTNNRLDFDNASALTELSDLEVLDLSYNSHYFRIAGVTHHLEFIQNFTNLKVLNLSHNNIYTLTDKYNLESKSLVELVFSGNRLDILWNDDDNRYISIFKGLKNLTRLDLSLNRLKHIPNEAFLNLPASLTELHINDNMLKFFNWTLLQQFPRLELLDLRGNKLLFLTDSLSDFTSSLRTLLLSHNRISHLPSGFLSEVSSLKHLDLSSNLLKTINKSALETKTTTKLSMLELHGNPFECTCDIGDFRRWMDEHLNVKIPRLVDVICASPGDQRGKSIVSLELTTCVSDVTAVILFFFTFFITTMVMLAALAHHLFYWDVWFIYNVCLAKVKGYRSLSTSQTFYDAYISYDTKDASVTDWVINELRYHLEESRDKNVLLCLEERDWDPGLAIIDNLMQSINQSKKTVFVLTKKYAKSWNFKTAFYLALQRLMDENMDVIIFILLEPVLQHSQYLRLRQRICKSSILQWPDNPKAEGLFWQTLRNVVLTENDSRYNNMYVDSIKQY

Sequence of human TLR7 (Q9NYK1 27-1049): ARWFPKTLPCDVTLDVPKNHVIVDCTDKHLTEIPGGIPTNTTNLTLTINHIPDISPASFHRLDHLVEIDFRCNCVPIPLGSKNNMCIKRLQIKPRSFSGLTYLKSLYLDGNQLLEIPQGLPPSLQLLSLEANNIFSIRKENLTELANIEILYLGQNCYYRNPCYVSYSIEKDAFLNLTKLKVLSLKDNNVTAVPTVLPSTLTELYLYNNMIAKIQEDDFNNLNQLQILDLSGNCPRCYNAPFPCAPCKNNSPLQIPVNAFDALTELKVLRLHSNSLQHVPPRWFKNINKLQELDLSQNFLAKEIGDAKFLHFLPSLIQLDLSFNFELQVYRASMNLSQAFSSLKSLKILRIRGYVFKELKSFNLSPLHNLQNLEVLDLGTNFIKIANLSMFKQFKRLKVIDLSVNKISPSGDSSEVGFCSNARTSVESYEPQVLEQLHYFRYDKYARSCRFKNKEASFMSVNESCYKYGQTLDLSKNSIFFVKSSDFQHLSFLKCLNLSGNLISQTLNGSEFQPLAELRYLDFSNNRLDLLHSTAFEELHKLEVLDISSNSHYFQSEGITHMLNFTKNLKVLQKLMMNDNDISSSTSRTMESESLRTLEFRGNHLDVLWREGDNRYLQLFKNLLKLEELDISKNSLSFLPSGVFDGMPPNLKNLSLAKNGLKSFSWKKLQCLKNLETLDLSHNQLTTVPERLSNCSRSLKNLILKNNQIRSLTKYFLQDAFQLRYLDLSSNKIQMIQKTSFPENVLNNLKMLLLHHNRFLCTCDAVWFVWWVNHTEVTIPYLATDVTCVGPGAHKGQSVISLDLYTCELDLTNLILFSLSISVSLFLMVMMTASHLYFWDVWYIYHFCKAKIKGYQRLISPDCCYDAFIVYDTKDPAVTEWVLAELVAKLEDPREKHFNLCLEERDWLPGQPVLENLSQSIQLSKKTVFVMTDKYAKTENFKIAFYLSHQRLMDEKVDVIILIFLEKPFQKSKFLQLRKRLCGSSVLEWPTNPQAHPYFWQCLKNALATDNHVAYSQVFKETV
Sequence of human TLR9 (Q9NR96 26-1032): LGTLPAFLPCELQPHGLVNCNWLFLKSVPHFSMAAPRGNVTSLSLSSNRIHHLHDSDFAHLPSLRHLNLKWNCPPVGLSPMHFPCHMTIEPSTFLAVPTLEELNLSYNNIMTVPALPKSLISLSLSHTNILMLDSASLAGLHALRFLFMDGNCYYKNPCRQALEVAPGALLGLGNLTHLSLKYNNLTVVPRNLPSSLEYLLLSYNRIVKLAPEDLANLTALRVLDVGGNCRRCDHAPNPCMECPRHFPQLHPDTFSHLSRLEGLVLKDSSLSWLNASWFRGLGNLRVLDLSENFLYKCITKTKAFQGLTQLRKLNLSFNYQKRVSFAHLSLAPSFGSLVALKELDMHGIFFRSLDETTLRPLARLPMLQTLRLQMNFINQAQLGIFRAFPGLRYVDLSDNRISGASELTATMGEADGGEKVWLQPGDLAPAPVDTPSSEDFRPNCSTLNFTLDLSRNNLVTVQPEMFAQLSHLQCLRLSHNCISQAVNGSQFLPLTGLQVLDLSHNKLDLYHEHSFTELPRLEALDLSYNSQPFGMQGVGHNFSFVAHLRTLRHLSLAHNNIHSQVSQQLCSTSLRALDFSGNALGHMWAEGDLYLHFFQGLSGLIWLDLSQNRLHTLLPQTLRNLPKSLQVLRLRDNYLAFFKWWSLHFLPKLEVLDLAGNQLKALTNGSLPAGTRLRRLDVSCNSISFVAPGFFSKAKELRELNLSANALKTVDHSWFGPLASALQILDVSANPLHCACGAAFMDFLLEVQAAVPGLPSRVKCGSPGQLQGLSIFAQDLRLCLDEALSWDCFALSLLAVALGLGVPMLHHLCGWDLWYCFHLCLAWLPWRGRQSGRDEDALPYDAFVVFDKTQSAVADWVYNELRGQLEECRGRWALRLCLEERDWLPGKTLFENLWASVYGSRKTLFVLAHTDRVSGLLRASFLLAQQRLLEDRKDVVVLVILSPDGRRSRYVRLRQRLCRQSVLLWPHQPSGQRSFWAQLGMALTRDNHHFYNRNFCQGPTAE

## CCC(C)CN(CCO)C(=O)CN1CCC(c2ccc3[nH]c(-c4cc(C)nc(C)c4)c(C(C)C)c3c2)CC1 (stereo not drawn) [Example 297, 2-(4-(2-(2,6-dimethylpyridin-4-yl)-3-isopropyl-1H-indol-5-yl)piperidin-1-yl)-N-(2-hydroxyethyl)-N-(2-methylbutyl)acetamide]
Human TLR9
  pIC50: 6.15
Human TLR7
  pIC50: 7.87
Human TLR8
  pIC50: 7.36

## CCc1c(-c2ccnc(C)c2)[nH]c2ccc(C3CCN(C(=O)C4CCNCC4)CC3)cc12 [Example 625, (4-(3-ethyl-2-(2-methylpyridin-4-yl)-1H-indol-5-yl)piperidin-1-yl)(piperidin-4-yl)methanone]
Human TLR9
  pIC50: 6.75
Human TLR7
  pIC50: 7.07
Human TLR8
  pIC50: 7.08

## CC(C)c1c(-c2ccncc2)[nH]c2ccc(C3CCN(C4CCN(C)CC4)CC3)cc12 [Example 525, 3-isopropyl-5-(1′-methyl-[1,4′-bipiperidin]-4-yl)-2-(pyridin-4-yl)-1H-indole]
Human TLR9
  pIC50: 6.72
Human TLR7
  pIC50: 7.35
Human TLR8
  pIC50: 8.22

## Cc1cc(-c2[nH]c3ccc(C4CCN(S(C)(=O)=O)CC4)cc3c2C(C)C)ccn1 [Example 550, 3-isopropyl-2-(2-methylpyridin-4-yl)-5-(1-(methylsulfonyl)piperidin-4-yl)-1H-indole]
Human TLR9
  pIC50: < 4.30
Human TLR7
  pIC50: 7.41
Human TLR8
  pIC50: 6.79

## Cc1cc(-c2[nH]c3ccc(C4CCN(C(=O)CCn5ccnc5C)CC4)cc3c2C(C)C)cc(C)n1 [Example 124, 1-(4-(2-(2,6-dimethylpyridin-4-yl)-3-isopropyl-1H-indol-5-yl)piperidin-1-yl)-3-(2-methyl-1H-imidazol-1-yl)propan-1-one]
Human TLR9
  pIC50: 6.40
Human TLR7
  pIC50: 8.72
Human TLR8
  pIC50: 8.00

## Cc1cc(-c2[nH]c3ccc(C4CCN(Cc5ccccn5)CC4)cc3c2C(C)C)cc(C)n1 [Example 431, 2-(2,6-dimethylpyridin-4-yl)-3-isopropyl-5-(1-(pyridin-2-ylmethyl)piperidin-4-yl)-1H-indole]
Human TLR9
  pIC50: 6.34
Human TLR7
  pIC50: 8.08
Human TLR8
  pIC50: 8.17

## Cc1cc(-c2[nH]c3ccc(C4CCN(CC(=O)NC56CC7CC(CC(C7)C5)C6)CC4)cc3c2C(C)C)cc(C)n1 [Example 224, N-(adamantan-1-yl)-2-(4-(2-(2,6-dimethylpyridin-4-yl)-3-isopropyl-1H-indol-5-yl)piperidin-1-yl)acetamide]
Human TLR9
  pIC50: 5.38
Human TLR7
  pIC50: 6.54
Human TLR8
  pIC50: 6.09

## Cc1cc(-c2[nH]c3ccc(C4CCN(C(=O)CN(CCO)Cc5ccccc5)CC4)cc3c2C(C)C)cc(C)n1 [Example 396, 2-(benzyl(2-hydroxyethyl)amino)-1-(4-(2-(2,6-dimethylpyridin-4-yl)-3-isopropyl-1H-indol-5-yl)piperidin-1-yl)ethan-1-one]
Human TLR9
  pIC50: 5.80
Human TLR7
  pIC50: 8.36
Human TLR8
  pIC50: 7.26

## CCc1c(-c2ccnc(C)c2)[nH]c2c(F)cc(C3CCNCC3)cc12 [Example 81, 3-ethyl-7-fluoro-2-(2-methylpyridin-4-yl)-5-(piperidin-4-yl)-1H-indole]
Human TLR9
  pIC50: 6.16
Human TLR7
  pIC50: 6.21
Human TLR8
  pIC50: 6.04

## Cc1cc(-c2[nH]c3ccc(C4CCN(C(=O)C5CCN(Cc6ccccc6)CC5)CC4)cc3c2C(C)C)ccn1 [Example 567, (1-benzylpiperidin-4-yl)(4-(3-isopropyl-2-(2-methylpyridin-4-yl)-1H-indol-5-yl)piperidin-1-yl)methanone]
Human TLR9
  pIC50: 6.06
Human TLR7
  pIC50: 7.57
Human TLR8
  pIC50: 7.64

## Cc1cc(-c2[nH]c3ccc(C4CCN(C(=O)CN(C)CCO)CC4)cc3c2C(C)C)c(F)cn1 [Example 680, 1-(4-(2-(5-fluoro-2-methylpyridin-4-yl)-3-isopropyl-1H-indol-5-yl)piperidin-1-yl)-2-((2-hydroxyethyl)(methyl)amino)ethan-1-one]
Human TLR9
  pIC50: 5.53
Human TLR7
  pIC50: 8.70
Human TLR8
  pIC50: 8.40

## Cc1cc(-c2[nH]c3ccc(C4CCN(C(=O)CN(C)C5CCS(=O)(=O)C5)CC4)cc3c2C(C)C)cc(C)n1 (stereo not drawn) [Example 147, 1-(4-(2-(2,6-dimethylpyridin-4-yl)-3-isopropyl-1H-indol-5-yl)piperidin-1-yl)-2-((1,1-dioxidotetrahydrothiophen-3-yl)(methyl)amino)ethan-1-one]
Human TLR9
  pIC50: 5.42
Human TLR7
  pIC50: 8.17
Human TLR8
  pIC50: 7.37

## Cc1cc(-c2[nH]c3ccc(C4CCN(C(=O)CN(C)C)CC4)cc3c2C2CC2)cc(C)n1 [Example 590, 1-(4-(3-cyclopropyl-2-(2,6-dimethylpyridin-4-yl)-1H-indol-5-yl)piperidin-1-yl)-2-(dimethylamino)ethan-1-one]
Human TLR9
  pIC50: 6.85
Human TLR7
  pIC50: 8.38
Human TLR8
  pIC50: 7.74

## Cc1nccc(-c2[nH]c3ccc(C4CCN(C5CCOCC5)CC4)cc3c2C(C)C)c1C [Example 716, 2-(2,3-dimethylpyridin-4-yl)-3-isopropyl-5-(1-(tetrahydro-2H-pyran-4-yl)piperidin-4-yl)-1H-indole]
Human TLR9
  pIC50: 5.72
Human TLR7
  pIC50: 6.84
Human TLR8
  pIC50: 7.13

## Cc1cc(-c2[nH]c3ccc(C4CCN(C(=O)CNC56CC7CC(CC(O)(C7)C5)C6)CC4)cc3c2C(C)C)cc(C)n1 [Example 343, 1-(4-(2-(2,6-dimethylpyridin-4-yl)-3-isopropyl-1H-indol-5-yl)piperidin-1-yl)-2-((3-hydroxyadamantan-1-yl)amino)ethan-1-one]
Human TLR9
  pIC50: 6.16
Human TLR7
  pIC50: 8.01
Human TLR8
  pIC50: 7.69

## Cc1cc(-c2[nH]c3ccc(C4CCN(CC(=O)N5CCC[C@@H]5CO)CC4)cc3c2C(C)C)cc(C)n1 [Example 302, (R)-2-(4-(2-(2,6-dimethylpyridin-4-yl)-3-isopropyl-1H-indol-5-yl)piperidin-1-yl)-1-(2-(hydroxymethyl)pyrrolidin-1-yl) ethan-1-one]
Human TLR9
  pIC50: 5.90
Human TLR7
  pIC50: 8.09
Human TLR8
  pIC50: 7.20

## CCCCN(CCO)C(=O)CN1CCC(c2ccc3[nH]c(-c4cc(C)nc(C)c4)c(C(C)C)c3c2)CC1 [Example 298, N-butyl-2-(4-(2-(2,6-dimethylpyridin-4-yl)-3-isopropyl-1H-indol-5-yl)piperidin-1-yl)-N-(2-hydroxyethyl)acetamide]
Human TLR9
  pIC50: 5.57
Human TLR7
  pIC50: 7.59
Human TLR8
  pIC50: 7.00

## Cc1cc(-c2[nH]c3ccc(C4CCN(CC(=O)N(C)CC(C)C)CC4)cc3c2C(C)C)cc(C)n1 [Example 245, 2-(4-(2-(2,6-dimethylpyridin-4-yl)-3-isopropyl-1H-indol-5-yl)piperidin-1-yl)-N-isobutyl-N-methylacetamide]
Human TLR9
  pIC50: 6.02
Human TLR7
  pIC50: 8.02
Human TLR8
  pIC50: 7.49

## Cc1cc(-c2[nH]c3ccc(C4CCN(C(=O)CNCCC(C)O)CC4)cc3c2C(C)C)cc(C)n1 (stereo not drawn) [Example 369, 1-(4-(2-(2,6-dimethylpyridin-4-yl)-3-isopropyl-1H-indol-5-yl)piperidin-1-yl)-2-((3-hydroxybutyl)amino)ethan-1-one]
Human TLR9
  pIC50: 5.98
Human TLR7
  pIC50: 7.99
Human TLR8
  pIC50: 7.03

## Cc1cc(-c2[nH]c3ccc(C4CCN(C5CCOCC5)CC4)cc3c2C(C)C)cc(C)n1 [Example 450, 2-(2,6-dimethylpyridin-4-yl)-3-isopropyl-5-(1-(tetrahydro-2H-pyran-4-yl)piperidin-4-yl)-1H-indole]
Human TLR9
  pIC50: 6.24
Human TLR7
  pIC50: 8.11
Human TLR8
  pIC50: 8.10

## CN[C@@H](C)C(=O)N1CCC(c2ccc3[nH]c(-c4cc(C)nc(C)c4)c(C(C)C)c3c2)CC1 [Example 191, (S)-1-(4-(2-(2,6-dimethylpyridin-4-yl)-3-isopropyl-1H-indol-5-yl)piperidin-1-yl)-2-(methylamino)propan-1-one]
Human TLR9
  pIC50: 6.50
Human TLR7
  pIC50: 8.46
Human TLR8
  pIC50: 7.84

## Cc1cc(-c2[nH]c3ccc(C4CCN(Cc5[nH]cnc5C)CC4)cc3c2C(C)C)ccn1 [Example 744, 3-isopropyl-5-(1-((4-methyl-1H-imidazol-5-yl)methyl)piperidin-4-yl)-2-(2-methylpyridin-4-yl)-1H-indole]
Human TLR9
  pIC50: 6.55
Human TLR7
  pIC50: 7.55
Human TLR8
  pIC50: 7.87

## Cc1cc(-c2[nH]c3ccc(C4CCN(C(=O)CN(C)CCO)CC4)cc3c2C(C)C)cc(C)n1 [Example 420, 1-(4-(2-(2,6-dimethylpyridin-4-yl)-3-isopropyl-1H-indol-5-yl)piperidin-1-yl)-2-((2-hydroxyethyl)(methyl)amino)ethan-1-one]
Human TLR9
  pIC50: 6.20
Human TLR7
  pIC50: 8.82
Human TLR8
  pIC50: 8.00

## CNCCN1CCC(c2ccc3[nH]c(-c4cc(C)nc(C)c4)c(CC(F)F)c3c2)CC1 [Example 541, 2-(4-(3-(2,2-difluoroethyl)-2-(2,6-dimethylpyridin-4-yl)-1H-indol-5-yl)piperidin-1-yl)-N-methylethan-1-amine]
Human TLR9
  pIC50: 6.96
Human TLR7
  pIC50: 7.94
Human TLR8
  pIC50: 7.65

## CC(C)c1c(-c2ccnc(CO)c2)[nH]c2ccc(C3CCNCC3)cc12 [Example 22, (4-(3-isopropyl-5-(piperidin-4-yl)-1H-indol-2-yl)pyridin-2-yl)methanol]
Human TLR9
  pIC50: 5.82
Human TLR7
  pIC50: 7.09
Human TLR8
  pIC50: 7.12

## CCc1c(-c2cc(Cl)ncc2F)[nH]c2ccc(C3CCN(C4CCN(CC(C)C)CC4)CC3)cc12 [Example 760, 2-(2-chloro-5-fluoropyridin-4-yl)-3-ethyl-5-(1′-isobutyl-[1,4′-bipiperidin]-4-yl)-1H-indole]
Human TLR9
  pIC50: 5.62
Human TLR7
  pIC50: 6.27
Human TLR8
  pIC50: 6.97

## Cc1cc(-c2[nH]c3ccc(C4CCN(C5CCNCC5C)CC4)cc3c2C(C)C)ccn1 (stereo not drawn) [Example 709, 3-isopropyl-5-(3′-methyl-[1,4′-bipiperidin]-4-yl)-2-(2-methylpyridin-4-yl)-1H-indole]
Human TLR9
  pIC50: 6.41
Human TLR7
  pIC50: 7.49
Human TLR8
  pIC50: 7.90

## Cc1cc(-c2[nH]c3ccc(C4CCN(C(=O)CCNc5ncccn5)CC4)cc3c2C(C)C)cc(C)n1 [Example 146, 1-(4-(2-(2,6-dimethylpyridin-4-yl)-3-isopropyl-1H-indol-5-yl)piperidin-1-yl)-3-(pyrimidin-2-ylamino) propan-1-one]
Human TLR9
  pIC50: 4.33
Human TLR7
  pIC50: 8.13
Human TLR8
  pIC50: 7.07
